Experimental data reported in ChEMBL document CHEMBL3352659, “Indolinone-based acetylcholinesterase inhibitors: synthesis, biological activity and molecular modeling” (Eur J Med Chem, 2014).

Key:
[1] = Selectivity index, ratio of IC50 for equine serum BuChE to IC50 for electric eel AChE
Acetylcholinesterase [2] = molecular target: T1, Acetylcholinesterase (Electrophorus electricus, UniProt O42275); assay: Inhibition of electric eel AChE using acetylthiocholine iodide substrate by Ellman method based spectrophotometry
Cholinesterase = Cholinesterase (Equus caballus, UniProt P81908); assay: Inhibition of equine serum BuChE using butyrylthiocholine iodide substrate by Ellman method based spectrophotometry
Acetylcholinesterase [3] = molecular target: T1, Acetylcholinesterase; assay: Mixed type inhibition of electric eel AChE using acetylthiocholine iodide substrate by Lineweaver-Burk plot analysis

T1 sequence (O42275 whole entry): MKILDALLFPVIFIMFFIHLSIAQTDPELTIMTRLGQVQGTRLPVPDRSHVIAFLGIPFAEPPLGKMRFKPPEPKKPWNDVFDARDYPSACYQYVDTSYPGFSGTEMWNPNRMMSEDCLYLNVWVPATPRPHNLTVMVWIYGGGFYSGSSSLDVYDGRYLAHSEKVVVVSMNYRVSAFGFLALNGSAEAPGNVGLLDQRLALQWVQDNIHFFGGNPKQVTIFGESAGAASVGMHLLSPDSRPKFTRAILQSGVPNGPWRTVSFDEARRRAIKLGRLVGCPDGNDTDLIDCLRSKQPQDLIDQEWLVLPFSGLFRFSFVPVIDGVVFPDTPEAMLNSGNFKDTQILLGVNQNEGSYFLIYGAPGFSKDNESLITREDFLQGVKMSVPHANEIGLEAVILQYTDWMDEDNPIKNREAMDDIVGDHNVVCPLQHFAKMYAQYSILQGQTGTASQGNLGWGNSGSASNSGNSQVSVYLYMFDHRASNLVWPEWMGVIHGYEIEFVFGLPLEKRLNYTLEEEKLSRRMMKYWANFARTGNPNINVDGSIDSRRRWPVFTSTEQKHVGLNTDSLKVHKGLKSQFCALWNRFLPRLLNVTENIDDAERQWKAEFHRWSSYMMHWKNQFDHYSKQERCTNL
Cholinesterase, sequence (P81908 whole entry): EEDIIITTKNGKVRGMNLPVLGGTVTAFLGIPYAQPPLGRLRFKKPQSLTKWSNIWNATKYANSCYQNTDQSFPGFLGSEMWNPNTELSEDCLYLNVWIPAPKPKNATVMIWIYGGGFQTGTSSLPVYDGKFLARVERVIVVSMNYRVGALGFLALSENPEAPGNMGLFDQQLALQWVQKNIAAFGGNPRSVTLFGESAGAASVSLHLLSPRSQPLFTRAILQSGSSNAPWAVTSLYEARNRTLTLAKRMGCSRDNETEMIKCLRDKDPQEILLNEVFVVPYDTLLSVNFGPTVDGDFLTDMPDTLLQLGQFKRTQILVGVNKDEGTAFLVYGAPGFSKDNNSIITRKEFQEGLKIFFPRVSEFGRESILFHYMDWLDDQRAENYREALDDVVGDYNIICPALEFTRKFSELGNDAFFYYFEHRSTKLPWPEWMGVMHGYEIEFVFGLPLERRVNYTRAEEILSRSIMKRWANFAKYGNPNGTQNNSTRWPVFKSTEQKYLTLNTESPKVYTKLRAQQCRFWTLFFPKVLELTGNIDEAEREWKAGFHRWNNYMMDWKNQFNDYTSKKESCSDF

Row | Structure (SMILES) | Ratio IC50 [1] | IC50 (Acetylcholinesterase [2]) [nM] | IC50 (Cholinesterase) [nM] | Ki (Acetylcholinesterase [3]) [nM]
1 | O=C1Nc2ccccc2/C1=C\c1cc[n+](Cc2c(Cl)cccc2Cl)cc1 | 88.2 | 17 | 1500 | 
2 | COc1ccc(C[n+]2ccc(/C=C3/C(=O)Nc4ccccc43)cc2)cc1 | 11.7 | 677 | 7900 | 
3 | O=C1Nc2ccccc2/C1=C\c1cc[n+](Cc2cccc(Cl)c2)cc1 | 276 | 4.9 | 1350 | 
4 | O=C1Nc2ccccc2/C1=C\c1cc[n+](Cc2ccc(Cl)cc2Cl)cc1 | 9.7 | 258 | 2500 | 
5 | O=C1Nc2ccccc2/C1=C\c1cc[n+](Cc2ccccc2[N+](=O)[O-])cc1 | 7.5 | 214 | 1600 | 
6 | O=C1Nc2ccccc2/C1=C\c1cc[n+](Cc2cccc(F)c2)cc1 | 352 | 12.8 | 4500 | 
7 | O=C1Nc2ccccc2/C1=C\c1cc[n+](Cc2c(F)cccc2Cl)cc1 | 488 | 4.1 | 2000 | 
8 | O=C1Nc2ccccc2/C1=C\c1cc[n+](Cc2ccc(F)cc2)cc1 | 4.58 | 677 | 3100 | 
9 | O=C1Nc2ccccc2/C1=C\c1cc[n+](Cc2ccc(Cl)c(Cl)c2)cc1 | 112 | 29.4 | 3300 | 
10 | Cc1cccc(C[n+]2ccc(/C=C3/C(=O)Nc4ccccc43)cc2)c1 | 327 | 5.2 | 1700 | 
11 | O=C1Nc2ccccc2/C1=C\c1cc[n+](Cc2ccccc2Br)cc1 | 842 | 1.46 | 1230 | 
12 | O=C1Nc2ccccc2/C1=C\c1cc[n+](Cc2ccc(Cl)cc2)cc1 | 3.73 | 590 | 2200 | 
13 | O=C1Nc2ccccc2/C1=C\c1cc[n+](Cc2ccc([N+](=O)[O-])cc2)cc1 | 10 | 744 | 7500 | 
14 | Cc1ccccc1C[n+]1ccc(/C=C2/C(=O)Nc3ccccc32)cc1 | 57.9 | 15.3 | 887 | 
15 | COc1cccc(C[n+]2ccc(/C=C3/C(=O)Nc4ccccc43)cc2)c1 | 424 | 6.6 | 2800 | 
16 | O=C1Nc2ccccc2/C1=C\c1cc[n+](Cc2ccccc2F)cc1 | 3420 | 1.25 | 4270 | 
17 | O=C1Nc2ccccc2/C1=C\c1cc[n+](Cc2ccccc2)cc1 | 91.3 | 47.1 | 4300 | 
18 | O=C1Nc2ccccc2/C1=C\c1cc[n+](Cc2ccc(Br)cc2)cc1 | 2.9 | 653 | 1900 | 
19 | O=C1Nc2ccccc2/C1=C\c1cc[n+](Cc2cccc(Br)c2)cc1 | 169 | 10.3 | 1740 | 
20 | O=C1Nc2ccccc2/C1=C\c1cc[n+](Cc2ccccc2Cl)cc1 | 3110 | 0.44 | 1370 | 1.14
21 | O=C1Nc2ccccc2/C1=C\c1cc[n+](Cc2ccc(CCl)cc2)cc1 | 9.67 | 103 | 1000 | 
